The source of these data is patent US8658639B2, “N-substituted-cyclic amino derivative” (Dainippon Sumitomo Pharma Co., Ltd, priority 2009, dated 2014).

The target in one series is T1, Recombinant human renin (Homo sapiens, UniProt P00797).
T1 sequence (P00797 67-406): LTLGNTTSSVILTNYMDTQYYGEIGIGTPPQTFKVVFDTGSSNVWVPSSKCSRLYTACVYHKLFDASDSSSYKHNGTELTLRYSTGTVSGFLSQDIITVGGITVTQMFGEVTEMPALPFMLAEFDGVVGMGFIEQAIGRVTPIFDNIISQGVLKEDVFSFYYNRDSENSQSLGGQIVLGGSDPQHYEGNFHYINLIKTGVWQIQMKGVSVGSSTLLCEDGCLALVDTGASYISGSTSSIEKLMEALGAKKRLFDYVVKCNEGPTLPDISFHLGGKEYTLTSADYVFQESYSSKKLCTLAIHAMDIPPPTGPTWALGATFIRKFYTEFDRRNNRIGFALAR
Put plainly: In vitro renin inhibitory activity assay. The following applies: recombinant human renin 4.2 ng/mL, substrate 4 μM, 37° C., one hour, pH 7.4. Format: biochemical. The method, then: Experiment 1: In Vitro Renin Inhibitory Activity Assay
Recombinant human renin (4.2 ng/mL) was reacted in 0.1M HEPES buffer (pH 7.4) containing 0.1M NaCl, 1 mM EDTA and 0.1 mg/mL BSA together with a substrate and a test compound at 37° C. for one hour. As the substrate, Arg-Glu(EDANS)-Ile-His-Pro-Phe-His-Leu-Val-Ile-His-Thr-Lys(DABCYL)-Arg (SEQ ID NO: 1) or DABCYL-γ-Abu-Ile-His-Pro-Phe-His-Leu-Val-Ile-His-Thr-EDANS (SEQ ID NO: 2) was added in such an amount so that the final concentration thereof became 4 μM. The elevated fluorescence intensity at the exciting wavelength 340 nm and the fluorescence wavelength 500 nm was measured by a fluorescence plate reader. The concentration of a test compound to be needed to inhibit an enzyme activity in the presence of a test compound in several concentrations by 50% was calculated as an IC50 value. The test compounds were diluted in DMSO and used in this Experiment.

The subject of series [1] is abdominal skin of CD male rats. Put plainly: Testing for irritation by single subcutaneous administration to rats. Format: in vivo. Also noted: key: — No inflammation; Amount of Inflammation: * < ** < *** < ****; Amount of Inflammation: * < ** < *** < ****; Amount of Inflammation: * < ** < *** < ****; Amount of Inflammation: * < ** < *** < ****. Particulars: single subcutaneous administration 0.1 ml, 2% in DMSO and saline. As for the experimental part:
Experiment 2: Testing for Irritation by Single Subcutaneous Administration to Rats
A test compound was measured and dissolved in DMSO and a saline solution in a concentration of 2%.

`CCC(=O)NCCN1C(=O)C(C)(C)Oc2cc(C)c(C(=O)N(C(C)C)C3CCCN(C(=O)OC(C)OC(=O)C4CCOCC4)C3)cc21` (single isomer, unassigned) [Example 87]: the IC50 (usually the concentration that gives 50% inhibition) at Recombinant human renin worked out at 9.6 nM. In series [1], the “Observation at Administration Site, One day after administration” value (shortened to “Observation … One day after administration”) is given as “—” and the “Observation at Administration Site, Three days after administration” value (“Observation … Three days after administration” for short) is listed as “—”.
With `COCCCCN1C(=O)C(C)(C)Oc2cc(C(F)(F)F)c(C(=O)N(C(C)C)[C@@H]3CCCNC3)cc21.Cl` [Comparative Example 1, 4-(4-methoxybutyl)-2,2-dimethyl-3-oxo-N-[(3R)-3-piperidinyl]-N-(2-propanyl)-7-(trifluoromethyl)-3,4-dihydro-2H-1,4-benzoxazine-6-carboxamide hydrochloride, reference compound], in series [1], the “Observation … One day after administration” value was “***” and the “Observation … Three days after administration” value is “****”.
For `CCC(=O)NCCN1C(=O)C(C)(C)Oc2cc(C(F)(F)F)c(C(=O)N(C(C)C)[C@@H]3CCCNC3)cc21.Cl` [Comparative Example 2, 2,2-dimethyl-3-oxo-N-[(3R)-3-piperidinyl]-4-[2-(propanoylamino)ethyl]-N-(2-propanyl)-7-(trifluoromethyl)-3,4-dihydro-2H-1,4-benzoxazine-6-carboxamide hydrochloride, reference compound], in that order: “****” and “****”.
For `CCC(=O)NCCN1C(=O)C2(CCC2)Oc2cc(C)c(C(=O)N(C(C)C)[C@@H]3CCCNC3)cc21.Cl` [Comparative Example 3, N-isopropyl-7-methyl-3-oxo-N-[(3R)-piperidin-3-yl]-4-[2-(propionylamino)ethyl]-3,4-dihydrospiro[1,4-benzoxazine-2,1′-cyclobutane]-6-carboxamide hydrochloride, reference compound], in that order: “****” and “****”.
As for `CCC(=O)NCCN1C(=O)C(C)(C)Oc2cc(C)c(C(=O)N(C(C)C)[C@@H]3CCCN(C(=O)OCc4oc(=O)oc4C)C3)cc21` [Example 2, (5-Methyl-2-oxo-1,3-dioxol-4-yl)methyl (3R)-3-[isopropyl({2,2,7-trimethyl-3-oxo-4-[2-(propionylamino)ethyl]-3,4-dihydro-2H-1,4-benzoxazin-6-yl}carbonyl)amino]piperidine-1-carboxylate], the IC50 on Recombinant human renin was 5.1 nM. For the same compound, in series [1], the “Observation … One day after administration” value is “—” and the “Observation … Three days after administration” value was “—”.
As to `CCC(=O)NCCN1C(=O)C2(CCC2)Oc2cc(C)c(C(=O)N(C(C)C)C3CCCN(C(=O)OC(C)OC(=O)CC(C)(C)O)C3)cc21` (stereo not drawn) [Example 50], the IC50 on Recombinant human renin turned out to be 15 nM.
As for `CCC(=O)NCCN1C(=O)C(C)(C)Oc2cc(C)c(C(=O)N(C(C)C)[C@@H]3CCCN(C(=O)O[C@@H](C)OC(=O)CC)C3)cc21` [Example 52], the IC50 on Recombinant human renin worked out at 42 nM.
On the same count and under the same terms, the value for `CCC(=O)NCCN1C(=O)C(C)(C)Oc2cc(C)c(C(=O)N(C(C)C)[C@@H]3CCCN(C(=O)O[C@H](C)OC(=O)CC)C3)cc21` [Example 53] was 48 nM; that for `CCC(=O)NCCN1C(=O)C(C)(C)Oc2cc(C)c(C(=O)N(C(C)C)C3CCCN(C(=O)OC(C)OC(=O)OC4CCCCC4)C3)cc21` (stereo not drawn) [Example 54] was 13 nM; that for `CCC(=O)NCCN1C(=O)C(C)(C)Oc2cc(C)c(C(=O)N(C(C)C)C3CCCN(C(=O)OC(C)OC(=O)c4cccnc4)C3)cc21` (stereo not drawn) [Example 59] was 38 nM.
In the case of `CCC(=O)NCCN1C(=O)C(C)(C)Oc2cc(C)c(C(=O)N(C(C)C)C3CCCN(C(=O)OC(C)OC(=O)C4CCOCC4)C3)cc21` (stereo not drawn) [Example 60], on Recombinant human renin, the IC50 was 3.2 nM.
For the compound `CCC(=O)NCCN1C(=O)C(C)(C)Oc2cc(C)c(C(=O)N(C(C)C)C3CCCN(C(=O)OC(C)OC(=O)C(N)C(C)C)C3)cc21` (stereo not drawn) [Example 62], the IC50 on Recombinant human renin is 2.8 nM.
With `CCC(=O)NCCN1C(=O)C(C)(C)Oc2cc(C)c(C(=O)N(C(C)C)[C@@H]3CCCN(C(=O)OC(C)OC(=O)CCCO)C3)cc21` (stereo partly drawn) [Example 63, 1-[(4-Hydroxybutanoyl)oxy]ethyl (3R)-3-[isopropyl({2,2,7-trimethyl-3-oxo-4-[2-(propionylamino)ethyl]-3,4-dihydro-2H-1,4-benzoxazin-6-yl}carbonyl)amino]piperidine-1-carboxylate], the IC50 on Recombinant human renin came to 0.96 nM.
Take `CCC(=O)NCCN1C(=O)C(C)(C)Oc2cc(C)c(C(=O)N(C(C)C)[C@@H]3CCCN(C(=O)O[C@@H](C)OC(=O)C(C)C)C3)cc21` [Example 66]: the IC50 on Recombinant human renin came to 1230 nM.
With `CCC(=O)NCCN1C(=O)C(C)(C)Oc2cc(C)c(C(=O)N(C(C)C)[C@@H]3CCCN(C(=O)O[C@H](C)OC(=O)C(C)C)C3)cc21` [Example 67], the IC50 on Recombinant human renin was determined as 250 nM. In addition, in series [1], the “Observation … One day after administration” value is “**” and the “Observation … Three days after administration” value is reported as “—”.
For `Cc1oc(=O)oc1COC(=O)N1CCC[C@@H](N(C(=O)c2cc3c(cc2C(F)(F)F)OC2(CC2)C(=O)N3CCNC(=O)C(F)F)C(C)C)C1` [Example 71], the IC50 at Recombinant human renin is 2.5 nM.
Same read-out and setting: the value for `CC(OC(=O)C(C)C)OC(=O)N1CCCC(N(C(=O)c2cc3c(cc2C(F)(F)F)OC2(CC2)C(=O)N3CCNC(=O)C(F)F)C(C)C)C1` (stereo not drawn) [Example 72] was 22 nM; that for `CCC(=O)NCCN1C(=O)C(C)(COC)Oc2cc(C(F)(F)F)c(C(=O)N(C(C)C)C3CCCN(C(=O)OC(C)OC(=O)C(C)C)C3)cc21` (stereo not drawn) [Example 74] was 22 nM; that for `CCC(=O)NCCN1C(=O)C(C)(COC)Oc2cc(C(F)(F)F)c(C(=O)N(C(C)C)C3CCCN(C(=O)OC(OC(=O)CC)C(C)C)C3)cc21` (stereo not drawn) [Example 75] was 0.74 nM.
Same read-out and setting: the value for `CCC(=O)NCCN1C(=O)C(C)(COC)Oc2cc(C(F)(F)F)c(C(=O)N(C(C)C)C3CCCN(C(=O)OC(OC(=O)C(C)C)C(C)C)C3)cc21` (stereo not drawn) [Example 76] was 0.56 nM; that for `CCC(=O)NCCN1C(=O)C2(CCC2)Sc2cc(C)c(C(=O)N(C(C)C)[C@@H]3CCCN(C(=O)OCc4oc(=O)oc4C)C3)cc21` [Example 78] was 20 nM.
On to `CCC(=O)NCCN1C(=O)C2(CCC2)Oc2cc(C)c(C(=O)N(C(C)C)[C@@H]3CCCN(C(=O)O[C@@H](C)OC(=O)C(C)C)C3)cc21` [Example 83], for which the IC50 at Recombinant human renin is 505 nM.
Regarding `CCC(=O)NCCN1C(=O)C2(CCC2)Oc2cc(C)c(C(=O)N(C(C)C)C3CCCN(C(=O)OC(C)OC(=O)CCCOC)C3)cc21` (stereo not drawn) [Example 84], the IC50 at Recombinant human renin amounted to 21 nM.
The same measure, in the same setting: the value for `CCC(=O)NCCN1C(=O)C(C)(COC)Oc2cc(C)c(C(=O)N(C(C)C)C3CCCN(C(=O)OC(C)OC(=O)CC)C3)cc21` (stereo not drawn) [Example 86] was 14 nM.
The same measure, in the same setting: to `CCC(=O)NCCN1C(=O)C2(CCC2)Oc2cc(C)c(C(=O)N(C(C)C)[C@@H]3CCCN(C(=O)OC(C)OC(=O)c4cccnc4)C3)cc21` (stereo partly drawn) [Example 89, 1-[({(3R)-3-[({7-Methyl-3-oxo-4-[2-(propanoylamino)ethyl]-3,4-dihydrospiro[1,4-benzoxazine-2,1′-cyclobutan]-6-yl}carbonyl)(2-propanyl)amino]-1-piperidinyl}carbonyl)oxy]ethyl 3-pyridine carboxylate] belongs 1.9 nM; to `CCOC(=O)O[C@@H](C)OC(=O)N1CCC[C@@H](N(C(=O)c2cc3c(cc2C)OC(C)(C)C(=O)N3CCNC(=O)CC)C(C)C)C1` [Example 90], 730 nM; to `CCOC(=O)O[C@H](C)OC(=O)N1CCC[C@@H](N(C(=O)c2cc3c(cc2C)OC(C)(C)C(=O)N3CCNC(=O)CC)C(C)C)C1` [Example 91], 710 nM.
On the same count and under the same terms, to `CCC(=O)NCCN1C(=O)[C@](C)(COC)Oc2cc(C)c(C(=O)N(C(C)C)[C@@H]3CCCN(C(=O)O[C@@H](C)OC(=O)C(C)C)C3)cc21` [Example 94] belongs 1890 nM.
On to `CCC(=O)NCCN1C(=O)C2(CCC2)Oc2cc(C)c(C(=O)N(C(C)C)C3CCCN(C(=O)OC(C)OC(=O)C(F)F)C3)cc21` (stereo not drawn) [Example 97], for which the IC50 on Recombinant human renin was found to be 0.13 nM.
With `CCC(=O)NCCN1C(=O)C(C)(C)Oc2cc(C)c(C(=O)N(C(C)C)C3CCCN(C(=O)OC(C)OC(=O)CC4CC4)C3)cc21` (stereo not drawn) [Example 98], the IC50 at Recombinant human renin stood at 9.1 nM.
